pEC50: −log10 of the molar value. Counter-ions that a name gives are not always drawn.
What was measured:
Format in all cases: cell-based
pig TRPM8 [1] = target: T1, pig TRPM8 (Sus scrofa, UniProt F1SM15); experiment: In vitro pig TRPM8 automated patch-clamp assay (SyncroPatch 384PE, CHO cells); settings: CHO cells expressing pig TRPM8, 28° C.
T1 construct: expressed in transfected cells; host or cells: CHO (pcDNA5/FRT/TO vector; hygromycin B and blasticidin selection)
Description: (§1) In Vitro Pig and Human TRPM8 Automated Patch-Clamp Assays
(§2) Automated whole-cell recordings of compound effects were performed on the SyncroPatch 384PE (Nanion Technologies, Munich, Germany) incorporated into a Biomek FX pipetting robot (Beckman Coulter, Jersey City, NJ, USA) using the same engineered CHO cell lines expressing human or pig TRPM8 channels. Data acquisition and analysis were performed with the proprietary software PatchControl 384 and DataControl 384, respectively (Nanion Technologies, Munich, Germany). All recordings were carried out using planar borosilicate glass patch clamp chips in a 384-microtiter plate format with patch hole resistances of 2-4 MO. For recordings, standard intracellular solution was used containing (in mM): 130 KF, 4 NaCl, 1 MgCl2, 0.5 CaCl2, 10 HEPES and 10 EGTA/KOH (pH 7.2) and standard extracellular solution contained in mM: 150 NaCl, 4 KCl, 0.5 CaCl2, 1 MgCl2 and 10 HEPES (pH 7.3).
(§3) Prior to the electrophysiological measurements, cells were harvested using Accutase (GIBCO, Fisher Scientific) and resuspended in warmed extracellular solution. The cell suspension was kept in the dedicated cell reservoir at 28° C. at a 1 million/ml cell density and shaken at 500 rounds per min (rpm). Experiments were performed at 28° C. throughout. Cells were distributed in high resistance 4-holes-per-well Nanion chips where they were caught on the patch holes by application of a −80 mbar pressure. The cell membrane was ruptured to obtain the whole-cell configuration with a pressure pulse of −250 mbar for 2 seconds. Voltage protocols were constructed using PatchControl 384. The cells were held at a holding potential of −60 mV and TRPM8 currents were recorded using a ramp protocol from −80 to +80 mV every 5 seconds before and after compound addition. Resulting currents were recorded at both −80 and +80 mV and current kinetics were exported and analyzed. From each plate, control wells with 200 μM menthol were recorded to validate the assay. One concentration of compound was applied to each of the other wells. For each concentration, compound response was determined by subtracting the baseline current recorded before compound addition from the maximum peak elicited currents obtained after compound addition. Then, each compound response was normalized to control condition without compound and maximum current (Emax) obtained for each compound. Nanion DataControl 384 software plotted current response for each compound concentration and was able to calculate an EC50 value for each active compound.

human TRPM8 [2] = target: T2, human TRPM8 (Homo sapiens, UniProt Q7Z2W7); experiment: In vitro human TRPM8 fluorescence calcium flux assay (recombinant CHO cells, Fluo4-AM, FDSS6000); settings: recombinant CHO cells expressing human TRPM8; menthol-related EC50, normalized to 100 μM menthol
T2 construct: expressed in transfected cells; host or cells: CHO (p658 mammalian expression vector)
T2 sequence (Q7Z2W7 whole entry): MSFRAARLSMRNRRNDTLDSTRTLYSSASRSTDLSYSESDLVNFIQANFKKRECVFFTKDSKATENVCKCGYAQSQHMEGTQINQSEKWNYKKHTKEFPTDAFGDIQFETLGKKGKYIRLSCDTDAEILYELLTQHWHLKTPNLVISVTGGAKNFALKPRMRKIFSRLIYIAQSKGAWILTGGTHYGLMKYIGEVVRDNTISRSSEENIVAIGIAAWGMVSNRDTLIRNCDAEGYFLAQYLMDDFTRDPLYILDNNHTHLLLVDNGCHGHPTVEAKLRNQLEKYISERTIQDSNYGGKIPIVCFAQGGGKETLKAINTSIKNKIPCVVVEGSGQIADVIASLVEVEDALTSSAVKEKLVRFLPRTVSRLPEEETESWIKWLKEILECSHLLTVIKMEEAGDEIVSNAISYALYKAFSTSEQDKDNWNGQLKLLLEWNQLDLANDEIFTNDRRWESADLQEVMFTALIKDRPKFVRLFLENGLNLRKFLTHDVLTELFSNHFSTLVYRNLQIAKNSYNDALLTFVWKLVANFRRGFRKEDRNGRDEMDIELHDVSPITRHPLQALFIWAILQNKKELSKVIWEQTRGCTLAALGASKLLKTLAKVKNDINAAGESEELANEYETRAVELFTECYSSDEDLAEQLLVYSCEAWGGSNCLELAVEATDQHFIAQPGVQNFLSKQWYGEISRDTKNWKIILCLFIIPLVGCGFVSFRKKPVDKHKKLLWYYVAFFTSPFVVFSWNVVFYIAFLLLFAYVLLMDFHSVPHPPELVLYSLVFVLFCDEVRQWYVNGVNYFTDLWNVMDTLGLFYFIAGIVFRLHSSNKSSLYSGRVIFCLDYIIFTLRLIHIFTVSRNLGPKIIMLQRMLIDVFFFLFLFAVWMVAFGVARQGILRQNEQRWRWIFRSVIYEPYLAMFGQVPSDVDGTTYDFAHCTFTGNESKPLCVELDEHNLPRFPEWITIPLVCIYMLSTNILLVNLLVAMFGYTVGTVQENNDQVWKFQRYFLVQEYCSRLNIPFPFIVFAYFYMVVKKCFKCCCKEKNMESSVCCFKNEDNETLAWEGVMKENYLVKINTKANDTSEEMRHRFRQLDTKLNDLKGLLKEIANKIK
How it was run: (§4)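 Agonist EC50 values come from sixteen-point dose responses normalized to the 100 μM menthol maximum, fitted sigmoidally. Calcium rise was followed for 3 min post-addition in recombinant CHO lines (human or pig TRPM8). Cells were dye-loaded with 2 μM Fluo4-AM, 1 h at room temperature, probenecid-containing HBSS.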

human TRPM8 [3] = target: T2, human TRPM8; experiment: In vitro human TRPM8 automated patch-clamp assay (SyncroPatch 384PE, CHO cells); settings: CHO cells expressing human TRPM8, 28° C.
Description: as §1, §2, §3

pig TRPM8 [4] = target: T1, pig TRPM8; experiment: In vitro pig TRPM8 fluorescence calcium flux assay (recombinant CHO cells, Fluo4-AM, FDSS6000); settings: recombinant CHO cells expressing pig TRPM8; menthol-related EC50, normalized to 100 μM menthol
How it was run: as §4

T1 sequence (F1SM15 1-1104): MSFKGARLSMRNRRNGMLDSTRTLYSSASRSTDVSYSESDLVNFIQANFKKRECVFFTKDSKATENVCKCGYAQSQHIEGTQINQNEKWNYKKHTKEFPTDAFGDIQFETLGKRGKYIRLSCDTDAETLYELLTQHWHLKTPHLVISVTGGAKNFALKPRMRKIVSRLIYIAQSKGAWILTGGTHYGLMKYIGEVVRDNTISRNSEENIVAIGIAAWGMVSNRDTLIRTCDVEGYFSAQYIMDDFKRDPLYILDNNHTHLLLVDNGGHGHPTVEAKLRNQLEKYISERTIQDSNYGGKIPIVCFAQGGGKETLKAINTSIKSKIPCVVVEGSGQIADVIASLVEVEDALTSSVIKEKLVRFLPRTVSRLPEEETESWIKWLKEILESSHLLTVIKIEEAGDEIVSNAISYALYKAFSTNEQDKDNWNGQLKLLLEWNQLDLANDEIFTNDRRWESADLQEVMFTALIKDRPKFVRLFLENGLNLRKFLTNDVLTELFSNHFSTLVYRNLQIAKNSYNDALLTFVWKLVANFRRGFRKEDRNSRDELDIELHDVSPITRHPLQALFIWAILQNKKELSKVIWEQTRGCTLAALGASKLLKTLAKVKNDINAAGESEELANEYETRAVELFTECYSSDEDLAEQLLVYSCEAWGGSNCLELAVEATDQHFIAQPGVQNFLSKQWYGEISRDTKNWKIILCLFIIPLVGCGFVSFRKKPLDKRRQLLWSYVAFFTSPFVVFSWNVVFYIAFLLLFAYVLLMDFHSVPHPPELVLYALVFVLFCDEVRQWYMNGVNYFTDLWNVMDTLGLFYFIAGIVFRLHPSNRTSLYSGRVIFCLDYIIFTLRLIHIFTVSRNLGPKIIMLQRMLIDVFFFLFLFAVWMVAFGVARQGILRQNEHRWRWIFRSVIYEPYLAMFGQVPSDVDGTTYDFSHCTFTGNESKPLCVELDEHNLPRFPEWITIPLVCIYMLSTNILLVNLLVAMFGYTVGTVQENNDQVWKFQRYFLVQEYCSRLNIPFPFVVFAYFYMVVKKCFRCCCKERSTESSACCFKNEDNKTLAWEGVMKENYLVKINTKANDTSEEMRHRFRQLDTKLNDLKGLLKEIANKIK

Row | Compound | pEC50 (pig TRPM8 [1]) | pEC50 (human TRPM8 [2]) | pEC50 (human TRPM8 [3]) | pEC50 (pig TRPM8 [4])
1 | COC(=O)COc1ccccc1CCNC(=O)[C@]1(O)C[C@H](C)CC[C@H]1C(C)C [Example 61, methyl 2-(2-(2-((1S,2S,5R)-1-hydroxy-2-isopropyl-5-methylcyclohexane-1-carboxamido)ethyl)phenoxy)acetate] | 5.30 | 7.95 | 5.54 | 8.13
2 | COC(=O)COc1cccc(CCNC(=O)[C@]2(O)C[C@H](C)CC[C@H]2C(C)C)c1 [Example 64, methyl 2-(3-(2-((1S,2S,5R)-1-hydroxy-2-isopropyl-5-methylcyclohexane-1-carboxamido)ethyl)phenoxy)acetate] | 5.41 | 7.78 | 5.24 | 8.08
3 | CC(C)[C@@H]1CC[C@@H](C)C[C@@]1(O)C(=O)NCC(CCO)c1ccccc1 (stereo partly drawn) [Example 66, (1S,2S,5R)-1-hydroxy-N-(4-hydroxy-2-phenylbutyl)-2-isopropyl-5-methylcyclohexane-1-carboxamide] | 5.22 | 7.29 | 5.43 | 7.12
4 | CC(C)[C@@H]1CC[C@@H](C)C[C@@]1(O)C(=O)NCC(=O)Oc1ccccc1 [Example 67, phenyl ((1S,2S,5R)-1-hydroxy-2-isopropyl-5-methylcyclohexane-1-carbonyl)glycinate] | 5.47 | 8.05 | 5.57 | 8.30
5 | COc1cc(C=O)ccc1OC(=O)CNC(=O)[C@]1(O)C[C@H](C)CC[C@H]1C(C)C [Example 68, 4-formyl-2-methoxyphenyl ((1S,2S,5R)-1-hydroxy-2-isopropyl-5-methylcyclohexane-1-carbonyl)glycinate] | 5.44 | 7.36 | 5.57 | 7.49
6 | COC(=O)C(CNC(=O)[C@]1(O)C[C@H](C)CC[C@H]1C(C)C)c1ccccc1 (stereo partly shown) [Example 69] | 5.80 | 7.34 | 5.71 | 7.38
7 | CC(C)[C@@H]1CC[C@@H](C)C[C@@]1(O)C(=O)NCC(CO)c1ccccc1 (stereo partly drawn) [Example 70, (1S,2S,5R)-1-hydroxy-N-(3-hydroxy-2-phenylpropyl)-2-isopropyl-5-methylcyclohexane-1-carboxamide] | 5.43 | 8.05 | 5.40 | 8.10
8 | COC(=O)Cc1cccc(CCNC(=O)[C@]2(O)C[C@H](C)CC[C@H]2C(C)C)c1 [Example 74, methyl 2-(3-(2-((1S,2S,5R)-1-hydroxy-2-isopropyl-5-methylcyclohexane-1-carboxamido)ethyl)phenyl)acetate] | 5.29 | 7.39 | 5.54 | 8.05
9 | CC(C)[C@@H]1CC[C@@H](C)C[C@@]1(O)C(=O)NCC(=O)c1ccccc1F [Example 85, (1S,2S,5R)—N-(2-(2-fluorophenyl)-2-oxoethyl)-1-hydroxy-2-isopropyl-5-methylcyclohexane-1-carboxamide] | 6.01 | 8.48 | 6.15 | 8.62
10 | CC(C)[C@@H]1CC[C@@H](C)C[C@@]1(O)C(=O)NCC(=O)Nc1ccc(O)cc1 [Example 88, (1S,2S,5R)-1-hydroxy-N-(2-((4-hydroxyphenyl)amino)-2-oxoethyl)-2-isopropyl-5-methylcyclohexane-1-carboxamide] | 5.96 | 7.25 | 5.82 | 7.70
11 | CC(C)[C@@H]1CC[C@@H](C)C[C@@]1(O)C(=O)N[C@@H]1COc2ccccc2C1 [Example 94, (1S,2S,5R)—N-((3S)-chroman-3-yl)-1-hydroxy-2-isopropyl-5-methylcyclohexane-1-carboxamide] | 5.82 | 8.19 | 5.97 | 8.11
12 | CC(C)[C@@H]1CC[C@@H](C)C[C@@]1(O)C(=O)NCC1(O)CCOc2ccccc21 (stereo partly drawn) [Example 96, (1S,2S,5R)-1-hydroxy-N-((4-hydroxychroman-4-yl)methyl)-2-isopropyl-5-methylcyclohexane-1-carboxamide] | 5.96 | 7.99 | 6.20 | 7.60
13 | COC(=O)c1cccc(CCNC(=O)[C@]2(O)C[C@H](C)CC[C@H]2C(C)C)c1 [Example 107, methyl 3-(2-((1S,2S,5R)-1-hydroxy-2-isopropyl-5-methylcyclohexane-1-carboxamido)ethyl)benzoate] | 5.61 | 7.37 | 5.42 | 7.66
14 | CC(C)[C@@H]1CC[C@@H](C)C[C@@]1(O)C(=O)NCCOC(=O)c1ccccc1 [Example 111, 2-((1S,2S,5R)-1-hydroxy-2-isopropyl-5-methylcyclohexane-1-carboxamido)ethyl benzoate] | 5.29 | 7.14 | 5.29 | 7.60

The remaining molecules from weak to strong by pEC50 (pig TRPM8 [1]), led by results:

Row | pEC50 (pig TRPM8 [1]) | pEC50 (human TRPM8 [2]) | pEC50 (human TRPM8 [3]) | pEC50 (pig TRPM8 [4]) | Compound
15 | 5.02 | 7.00 | 5.85 | 7.03 | COc1ccc(CCNC(=O)[C@]2(O)C[C@H](C)CC[C@H]2C(C)C)cc1OC [Example 113, (1S,2S,5R)-N-[2-(3,4-dimethoxyphenyl)ethyl]-1-hydroxy-2-isopropyl-5-methyl-cyclohexanecarboxamide]
16 | 5.29 | 7.07 | 5.26 | 7.24 | COc1cc(CO)ccc1OC(=O)CNC(=O)[C@]1(O)C[C@H](C)CC[C@H]1C(C)C [Example 79, 4-(hydroxymethyl)-2-methoxyphenyl ((1S,2S,5R)-1-hydroxy-2-isopropyl-5-methylcyclohexane-1-carbonyl)glycinate]
17 | 5.70 | 7.31 | 5.55 | 7.17 | COC(=O)CCc1ccccc1CCNC(=O)[C@]1(O)C[C@H](C)CC[C@H]1C(C)C [Example 93, methyl 3-(2-(2-((1S,2S,5R)-1-hydroxy-2-isopropyl-5-methylcyclohexane-1-carboxamido)ethyl)phenyl)propanoate]
18 | 5.75 | 7.65 | 5.66 | 7.92 | CC(C)[C@@H]1CC[C@@H](C)C[C@@]1(O)C(=O)NCCc1ccc(CO)cc1 [Example 109, (1S,2S,5R)-1-hydroxy-N-(4-(hydroxymethyl)phenethyl)-2-isopropyl-5-methylcyclohexane-1-carboxamide]
19 | 5.95 | 8.40 | 6.16 | 8.10 | CC(C)[C@@H]1CC[C@@H](C)C[C@@]1(O)C(=O)NCC(C(=O)OCC(C)(C)N)c1ccccc1 (stereo partly drawn) [Example 73, 2-amino-2-methylpropyl 3-((1S,2S,5R)-1-hydroxy-2-isopropyl-5-methylcyclohexane-1-carboxamido)-2-phenylpropanoate hydrochloride]
20 | 6.05 | 8.28 | 5.99 | 8.66 | Cc1cccc(CCNC(=O)[C@]2(O)C[C@H](C)CC[C@H]2C(C)C)c1 [Example 58, (1S,2S,5R)-1-hydroxy-2-isopropyl-5-methyl-N-(3-methylphenethyl)cyclohexane-1-carboxamide]
21 | 6.06 | 9.00 | 6.74 | 8.70 | CC(C)[C@@H]1CC[C@@H](C)C[C@@]1(O)C(=O)NCC(C(=O)OCCN)c1ccccc1 (stereo partly drawn) [Example 71, 2-aminoethyl 3-((1S,2S,5R)-1-hydroxy-2-isopropyl-5-methylcyclohexane-1-carboxamido)-2-phenylpropanoate hydrochloride]
22 | 6.10 | 8.52 | 5.86 | 8.70 | [2H]C(O)(CNC(=O)[C@]1(O)C[C@H](C)CC[C@H]1C(C)C)c1ccccc1 (stereo partly drawn) [Example 72, (1S,2S,5R)-1-hydroxy-N-(2-hydroxy-2-phenylethyl-2-d)-2-isopropyl-5-methylcyclohexane-1-carboxamide]

Reference: patent publication US20240124408A1 (Sanofi, priority 2020, published 2024)
